According to PubChem BioAssay AID330 (DTP/NCI, 2004):
Values joined by “and” are separate entries in the source; they are usually repeats but may differ in a detail not shown here. Identical values can stand only once. Inconclusive results and toxic doses are left out.

Test system: P388 leukemia ip, CD2F1 mice, survival T/C
Assay: NCI In Vivo Anticancer Drug Screen. Data for tumor model P388 Leukemia (intraperitoneal) in CD2F1 (CDF1) mice
Conditions: endpoint: median survival time, higher = longer survival
Procedure, shortened: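 Mice carrying the transplanted tumor received test compound or vehicle. Survival was recorded in each group, and the value is the treated-group measurement divided by that of the vehicle-treated control group.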

[1] = dose: 60.0 mg/kg/injection, schedule: Q01DX005 (ip), vehicle: Klucel (hydroxypropylcellulose) (HPC)
[2] = dose: 120.0 mg/kg/injection, schedule: Q01DX005 (ip), vehicle: Klucel (hydroxypropylcellulose) (HPC)
[3] = dose: 240.0 mg/kg/injection, schedule: Q01DX005 (ip), vehicle: Klucel (hydroxypropylcellulose) (HPC)
[4] = dose: 60.0 mg/kg/injection, schedule: Q01DX005 (ip), vehicle: saline with Tween-80
[5] = dose: 120.0 mg/kg/injection, schedule: Q01DX005 (ip), vehicle: saline with Tween-80
[6] = dose: 240.0 mg/kg/injection, schedule: Q01DX005 (ip), vehicle: saline with Tween-80
[7] = dose: 50.0 mg/kg/injection, schedule: Q01DX005 (ip), vehicle: saline with Tween-80
[8] = dose: 100.0 mg/kg/injection, schedule: Q01DX005 (ip), vehicle: saline with Tween-80
[9] = dose: 200.0 mg/kg/injection, schedule: Q01DX005 (ip), vehicle: saline with Tween-80

SMILES: O=C1NC(=O)C(=Cc2c(Cl)cccc2Cl)C(=O)N1
- T/C (dose: 12.5 mg/kg/injection, schedule: Q01DX009 (ip), vehicle: saline with Tween-80): 116 % of control
- T/C (dose: 25.0 mg/kg/injection, schedule: Q01DX009 (ip), vehicle: saline with Tween-80): 122 % of control
- T/C (dose: 50.0 mg/kg/injection, schedule: Q01DX009 (ip), vehicle: saline with Tween-80): 122 % of control

SMILES: CC1(C(=O)O)CCCC2(C)C3=C(CCCC3)CCC12 (centres undefined)
- T/C (dose: 100.0 mg/kg/injection, schedule: Q01DX009 (ip), vehicle: saline with Tween-80): 104 % of control
- T/C (dose: 200.0 mg/kg/injection, schedule: Q01DX009 (ip), vehicle: saline with Tween-80): 100 % of control
- T/C (dose: 400.0 mg/kg/injection, schedule: Q01DX009 (ip), vehicle: saline with Tween-80): 95 % of control

SMILES: CCOC(=O)c1c(C)noc1NC
- T/C [1]: 100 % of control
- T/C [2]: 101 % of control
- T/C [3]: 100 % of control

SMILES: COC1=CC(=O)C(=O)C=C1C(C)(C)C
- T/C (dose: 2.8 mg/kg/injection, schedule: Q01DX005 (ip), vehicle: saline with Tween-80): 107 % of control
- T/C (dose: 5.6 mg/kg/injection, schedule: Q01DX005 (ip), vehicle: saline with Tween-80): 100 % of control
- T/C (dose: 11.25 mg/kg/injection, schedule: Q01DX005 (ip), vehicle: saline with Tween-80): 107 % of control
- T/C (dose: 22.5 mg/kg/injection, schedule: Q01DX005 (ip), vehicle: saline with Tween-80): 98 % of control and 115 % of control
- T/C (dose: 45.0 mg/kg/injection, schedule: Q01DX005 (ip), vehicle: saline with Tween-80): 91 % of control and 96 % of control

SMILES: CN=C(c1ccc(NC(=O)c2ccc(C(=O)Nc3ccc(C(=NC)N(C)C)cc3)c(Cl)c2)cc1)N(C)C
- T/C (dose: 0.75 mg/kg/injection, schedule: Q01DX005 (ip), vehicle: saline): 95 % of control
- T/C (dose: 1.5 mg/kg/injection, schedule: Q01DX005 (ip), vehicle: saline): 96 % of control
- T/C (dose: 3.0 mg/kg/injection, schedule: Q01DX005 (ip), vehicle: saline): 92 % of control
- T/C (dose: 3.12 mg/kg/injection, schedule: Q01DX005 (ip), vehicle: saline): 100 % of control

SMILES: COc1cc2c[n+]3ccc4ccccc4c3c(N)c2cc1OC
- T/C (dose: 50.0 mg/kg/injection, schedule: Q04DX003 (ip), vehicle: distilled water + Tween-80): 97 % of control
- T/C (dose: 100.0 mg/kg/injection, schedule: Q04DX003 (ip), vehicle: distilled water + Tween-80): 106 % of control

SMILES: CCOC(=O)C1=C(Nc2cccc3c(NC4=C(C(=O)OCC)C(=O)CO4)cccc23)OCC1=O
- T/C [4]: 109 % of control
- T/C [5]: 99 % of control
- T/C [6]: 98 % of control

SMILES: OCc1c(CO)c2cccn2c2c1cnn2-c1ccccc1
- T/C [4]: 100 % of control
- T/C [5]: 90 % of control
- T/C [6]: 89 % of control

SMILES: CN1C(Cc2ccccc2)N(S(=O)(=O)C2C=CC=CC=C2)CC1(C)C (centres undefined)
- T/C (dose: 100.0 mg/kg/injection, schedule: Q04DX003 (ip), vehicle: saline): 101 % of control
- T/C (dose: 200.0 mg/kg/injection, schedule: Q04DX003 (ip), vehicle: saline): 99 % of control
- T/C (dose: 400.0 mg/kg/injection, schedule: Q04DX003 (ip), vehicle: saline): 93 % of control

SMILES: NNC(=O)CN1c2ccccc2Sc2ccc(Cl)cc21
- T/C (dose: 6.25 mg/kg/injection, schedule: Q01DX009 (ip), vehicle: Klucel (hydroxypropylcellulose) (HPC)): 104 % of control
- T/C (dose: 12.5 mg/kg/injection, schedule: Q01DX009 (ip), vehicle: Klucel (hydroxypropylcellulose) (HPC)): 95 % of control
- T/C (dose: 25.0 mg/kg/injection, schedule: Q01DX009 (ip), vehicle: Klucel (hydroxypropylcellulose) (HPC)): 97 % of control
- T/C (dose: 50.0 mg/kg/injection, schedule: Q01DX009 (ip), vehicle: Klucel (hydroxypropylcellulose) (HPC)): 99 % of control

SMILES: O=C1c2ccccc2C(=O)c2c1ccc1nc(Cl)c(=O)[nH]c21
- T/C [4]: 94 % of control
- T/C [5]: 97 % of control
- T/C [6]: 94 % of control

SMILES: N/N=C1/C=Cc2cccc3cccc1c23
- T/C [7]: 89 % of control
- T/C [8]: 89 % of control

SMILES: Cc1cc(C)nc(NCCCCCCCCNc2nc(C)cc(C)n2)n1
- T/C (dose: 50.0 mg/kg/injection, schedule: Q01DX005 (ip), vehicle: Klucel (hydroxypropylcellulose) (HPC)): 91 % of control
- T/C (dose: 100.0 mg/kg/injection, schedule: Q01DX005 (ip), vehicle: Klucel (hydroxypropylcellulose) (HPC)): 96 % of control
- T/C (dose: 200.0 mg/kg/injection, schedule: Q01DX005 (ip), vehicle: Klucel (hydroxypropylcellulose) (HPC)): 90 % of control

SMILES: COc1ccc(CN2CCCN(Cc3ccc(OC)cc3)C2c2cc3ccccc3c3ccccc23)cc1
- T/C [7]: 99 % of control
- T/C [8]: 99 % of control
- T/C [9]: 101 % of control

SMILES: Nc1ccc(NC(=O)c2ccc([N+](=O)[O-])cc2)cc1
- T/C (dose: 25.0 mg/kg/injection, schedule: Q01DX009 (ip), vehicle: other): 115 % of control
- T/C (dose: 50.0 mg/kg/injection, schedule: Q01DX009 (ip), vehicle: other): 112 % of control
- T/C (dose: 100.0 mg/kg/injection, schedule: Q01DX009 (ip), vehicle: other): 106 % of control
- T/C (dose: 200.0 mg/kg/injection, schedule: Q01DX009 (ip), vehicle: other): 115 % of control
- T/C (dose: 400.0 mg/kg/injection, schedule: Q01DX009 (ip), vehicle: other): 123 % of control

SMILES: CN=C1OC2(c3ccccc3)C3=C(OC(=NC)N2C)C(=O)OC3(c2ccccc2)N1C (centres undefined)
- T/C [1]: 98 % of control
- T/C [2]: 95 % of control
- T/C [3]: 91 % of control

SMILES: Cc1cc(O)c(C(=O)/C=C/c2ccnc3ccccc23)c(=O)o1
- T/C [1]: 104 % of control
- T/C [2]: 108 % of control

SMILES: [CH3][Sn]([CH3])([Br])[Br].c1ccc(-c2nnc(-c3ccccn3)nc2-c2ccccc2)cc1
- T/C (dose: 30.0 mg/kg/injection, schedule: Q01DX005 (ip), vehicle: Klucel (hydroxypropylcellulose) (HPC)): 107 % of control
- T/C [1]: 113 % of control and 95 % of control
- T/C [2]: 100 % of control and 106 % of control

SMILES: COc1ccc(OC)c(N(CCN2C(=O)c3ccccc3C2=O)C(=O)C2CCC(=O)C2C)c1 (centres undefined)
- T/C [4]: 99 % of control
- T/C [5]: 87 % of control

SMILES: Cc1[nH]nc2c1NC(=O)OC(C)(C)C2
- T/C [7]: 106 % of control
- T/C [8]: 99 % of control
- T/C [9]: 101 % of control

SMILES: O=C(NCc1ccccn1)c1ccccc1
- T/C (dose: 50.0 mg/kg/injection, schedule: Q01DX009 (ip), vehicle: saline): 103 % of control
- T/C (dose: 100.0 mg/kg/injection, schedule: Q01DX009 (ip), vehicle: saline): 90 % of control
- T/C (dose: 200.0 mg/kg/injection, schedule: Q01DX009 (ip), vehicle: saline): 100 % of control

SMILES: CCN1C(=O)N(CC)C2(CC(=O)c3ccccc3O2)C1=O (centres undefined)
- T/C (dose: 60.0 mg/kg/injection, schedule: Q01DX005 (ip), vehicle: saline): 111 % of control
- T/C (dose: 120.0 mg/kg/injection, schedule: Q01DX005 (ip), vehicle: saline): 108 % of control
- T/C (dose: 240.0 mg/kg/injection, schedule: Q01DX005 (ip), vehicle: saline): 110 % of control

SMILES: COc1cc(C(=O)Nc2ccc(S(=O)(=O)Nc3nc(C)cc(C)n3)cc2)cc(OC)c1OC
- T/C [7]: 98 % of control
- T/C [8]: 88 % of control
- T/C [9]: 103 % of control

SMILES: CCCCCC/C(CC(SCC)c1ccccc1Cl)=N\NC(N)=S (centres undefined)
- T/C [4]: 91 % of control
- T/C [5]: 96 % of control
- T/C [6]: 91 % of control

SMILES: O=S(=O)(O)c1ccccc1O
- T/C (dose: 25.0 mg/kg/injection, schedule: Q01DX001 (ip), vehicle: saline with Tween-80): 111 % of control
- T/C (dose: 50.0 mg/kg/injection, schedule: Q01DX001 (ip), vehicle: saline with Tween-80): 98 % of control
- T/C (dose: 100.0 mg/kg/injection, schedule: Q01DX001 (ip), vehicle: saline with Tween-80): 99 % of control

SMILES: OC1c2ccccc2-c2ccc(N(Cc3ccc(Br)cc3)Cc3ccc(Br)cc3)cc21 (centres undefined)
- T/C [7]: 100 % of control
- T/C [8]: 91 % of control
- T/C [9]: 92 % of control

SMILES: CCOC(=O)/C=C(\C)NC1CC(OC2CC(O)(C(=O)CO)Cc3c(O)c4c(c(O)c32)C(=O)c2c(OC)cccc2C4=O)OC(C)C1O (centres undefined)
- T/C (dose: 6.25 mg/kg/injection, schedule: Q04DX003 (ip), vehicle: saline with Tween-80): 119 % of control
- T/C (dose: 12.5 mg/kg/injection, schedule: Q04DX003 (ip), vehicle: saline with Tween-80): 113 % of control
- T/C (dose: 50.0 mg/kg/injection, schedule: Q04DX003 (ip), vehicle: saline with Tween-80): 172 % of control

SMILES: CCOC(=O)N1Cc2cc3ccccc3nc2C1CC(=O)O (centres undefined)
- T/C (dose: 200.0 mg/kg/injection, schedule: Q01DX009 (ip), vehicle: Klucel (hydroxypropylcellulose) (HPC)): 95 % of control
- T/C (dose: 400.0 mg/kg/injection, schedule: Q01DX009 (ip), vehicle: Klucel (hydroxypropylcellulose) (HPC)): 104 % of control

SMILES: CCOC(=O)/N=[N+](\[O-])c1ccc([N+](=O)[O-])cc1
- T/C (dose: 100.0 mg/kg/injection, schedule: Q01DX001 (ip), vehicle: Klucel (hydroxypropylcellulose) (HPC)): 95 % of control

SMILES: O=C(O)c1ccc2n[se]nc2c1
- T/C [4]: 96 % of control
- T/C [5]: 105 % of control
- T/C [6]: 97 % of control
